The source made the active and inactive calls.
Assays:
[1] = target: Peroxisome proliferator-activated receptor gamma/Nuclear receptor corepressor 2 (Homo sapiens, UniProt P37231+Q9Y618); assay: Counterscreen for NR2E3 inverse agonists: TR-FRET-based biochemical high throughput dose response assay to identify inverse agonists of the interaction between peroxisome proliferator-activated receptor gamma (PPARg) and nuclear receptor co-repressor 2 (NCOR2).; format: functional
[2] = target: Photoreceptor-specific nuclear receptor (Homo sapiens, UniProt Q9Y5X4); assay: NR2E3 inverse agonists, dose response, biochemical, TR-FRET (AID 463256); format: functional
[3] = target: ADP-ribosylation factor GTPase-activating protein 1 (Rattus norvegicus, UniProt Q62848); assay: Fluorescence polarization-based biochemical high throughput dose response screening assay to identify inhibitors of ADP-ribosylation factor GTPase activating protein 1 (ARFGAP1).; format: functional
[4] = target: Genome polyprotein (Hepatitis C virus, UniProt Q2Q167); assay: HCV core protein dimerization inhibitors, dose response, biochemical, TR-FRET (AID 2159); design: species or system Hepacivirus hominis;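 note: blocks dimerization of HCV core protein measured by TR-FRET between tagged core106 pairs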
[5] = target: T1, Mannose-6-phosphate isomerase (Homo sapiens, UniProt P34949); assay: inhibitors of human PMI, primary screen, biochemical, fluorescence intensity, coupled assay (AID 1209)
T1 sequence (P34949 whole entry): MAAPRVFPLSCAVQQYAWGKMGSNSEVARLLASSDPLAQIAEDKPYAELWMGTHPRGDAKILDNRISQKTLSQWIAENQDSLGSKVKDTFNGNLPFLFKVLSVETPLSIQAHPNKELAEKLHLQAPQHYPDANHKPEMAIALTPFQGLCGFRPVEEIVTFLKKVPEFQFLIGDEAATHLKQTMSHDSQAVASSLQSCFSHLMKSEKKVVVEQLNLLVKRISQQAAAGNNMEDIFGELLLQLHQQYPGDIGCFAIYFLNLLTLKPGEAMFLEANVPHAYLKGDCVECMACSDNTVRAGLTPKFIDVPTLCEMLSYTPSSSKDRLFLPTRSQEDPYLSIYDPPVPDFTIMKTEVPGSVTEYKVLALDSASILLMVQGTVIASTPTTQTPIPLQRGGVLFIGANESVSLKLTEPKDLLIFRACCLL

[6] = target: Protein-tyrosine kinase 2-beta (Homo sapiens, UniProt Q14289);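 note: potency of inhibitors of PYK2 kinase phosphorylation of poly-GT substrate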
[7] = target: Ephrin type-A receptor 4 (Mus musculus, UniProt Q03137); assay: inhibitors of EphA4 binding to KYL peptide, primary screen, biochemical, colorimetric, mouse EphA4 (AID 689); format: functional
[8] = target: NADPH oxidase 1 (Homo sapiens, UniProt Q9Y5S8); format: functional, cell-based;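 note: Cell-based assay with luminescence read-out, IC50 derived from inhibitor dose-response curves; intracellular ROS from endogenous NOX1 in intact HT29 colon cancer cells; potency of inhibitors that lower the ROS luminescence signal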
[9] = M. tuberculosis H37Rv growth inhibitors, H37Rv strain (AID 1626); format: functional
[10] = target: T2, Estrogen receptor (Homo sapiens, UniProt P03372); assay: potentiators of ERα–SRC-1 coactivator binding, dose response, biochemical, TR-FRET, ERα LBD (AID 737)
T2 sequence (P03372 whole entry): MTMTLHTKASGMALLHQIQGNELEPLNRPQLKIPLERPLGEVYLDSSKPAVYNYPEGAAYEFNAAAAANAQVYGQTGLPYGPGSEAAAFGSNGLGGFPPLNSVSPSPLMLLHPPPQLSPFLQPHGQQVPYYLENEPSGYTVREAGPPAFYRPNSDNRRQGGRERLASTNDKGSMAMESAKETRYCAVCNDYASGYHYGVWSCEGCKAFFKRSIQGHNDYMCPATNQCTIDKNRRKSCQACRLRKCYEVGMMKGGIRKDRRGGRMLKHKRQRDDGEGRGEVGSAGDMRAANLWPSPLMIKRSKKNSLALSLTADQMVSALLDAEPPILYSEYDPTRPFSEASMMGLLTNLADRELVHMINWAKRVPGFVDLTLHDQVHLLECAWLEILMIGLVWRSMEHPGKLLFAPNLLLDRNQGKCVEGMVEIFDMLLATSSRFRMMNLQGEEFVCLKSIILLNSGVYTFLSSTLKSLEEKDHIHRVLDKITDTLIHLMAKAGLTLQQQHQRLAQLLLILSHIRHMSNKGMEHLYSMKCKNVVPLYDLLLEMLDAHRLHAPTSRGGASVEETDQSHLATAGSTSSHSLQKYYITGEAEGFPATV

[11] = A549 cell cytotoxicity, dose response, cytotoxicity control, plate reader, cherry-pick, antagonist series (AID 743412); format: functional, cell-based
[12] = P. falciparum 3D7-ScDHODH growth inhibitors, dose response, SYBR Green, dry powder samples (AID 1159570); format: functional, cell-based;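 note: parasite growth measured after 72 hours of compound exposure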
[13] = HepG2 cell cytotoxicity, dose response, cytotoxicity control, plate reader, dry powder samples (AID 1159569); format: functional, cell-based;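 note: inhibitor potency with signal falling toward the positive control level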
[14] = P. falciparum Dd2 growth inhibitors, dose response, SYBR Green, cherry-picked samples (AID 1159567); format: functional, cell-based
[15] = P. falciparum Dd2 growth inhibitors, dose response, SYBR Green, dry powder samples (AID 1159566); format: functional, cell-based;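 note: potency for growth inhibition with lower SYBR green DNA signal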
[16] = Plasmodium falciparum Dd2 Sybr green parasite growth Measured in Cell-Based and Microorganism Combination System Using Plate Reader - 2153-01_Inhibitor_Dose_DryPowder_Activity_Set3.; format: functional
[17] = P. falciparum ATP4 D1247Y mutant growth inhibitors, dose response, NITD609-resistant line, SYBR Green, dry powder (AID 1159571); format: functional, cell-based;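 note: parasites synchronized at ring stage by sorbitol before testing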
[18] = target: T3, Estrogen receptor beta (Homo sapiens, UniProt Q92731);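 note: recombinant ER-beta bound to coactivator SRC1 peptide in presence of estradiol agonist; inhibitors block coactivator peptide binding and lower the FRET signal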
[19] = target: T3, Estrogen receptor beta; assay: ERβ–SRC-3 coactivator interaction inhibitors, confirmation, orthogonal assay, biochemical, ELISA, streptavidin-HRP readout (AID 1060)

T3 sequence (Q92731 whole entry): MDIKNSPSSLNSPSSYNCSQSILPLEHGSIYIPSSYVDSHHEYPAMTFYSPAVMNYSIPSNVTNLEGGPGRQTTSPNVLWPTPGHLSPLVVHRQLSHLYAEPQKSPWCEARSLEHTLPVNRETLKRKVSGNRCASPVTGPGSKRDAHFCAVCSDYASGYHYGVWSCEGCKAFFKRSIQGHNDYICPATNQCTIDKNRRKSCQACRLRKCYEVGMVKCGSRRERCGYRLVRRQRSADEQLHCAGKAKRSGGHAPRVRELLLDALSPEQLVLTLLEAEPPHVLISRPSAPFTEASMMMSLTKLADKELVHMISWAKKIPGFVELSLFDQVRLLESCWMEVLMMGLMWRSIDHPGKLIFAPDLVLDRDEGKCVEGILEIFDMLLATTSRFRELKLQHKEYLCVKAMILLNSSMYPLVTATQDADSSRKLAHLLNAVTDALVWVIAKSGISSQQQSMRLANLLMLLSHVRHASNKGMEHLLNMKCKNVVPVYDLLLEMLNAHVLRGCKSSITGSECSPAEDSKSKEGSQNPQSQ
Chain of Genome polyprotein (Q2Q167 whole entry): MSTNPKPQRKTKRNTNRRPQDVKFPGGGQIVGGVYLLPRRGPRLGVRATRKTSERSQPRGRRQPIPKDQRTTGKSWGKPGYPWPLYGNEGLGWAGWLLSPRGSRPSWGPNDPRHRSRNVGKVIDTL
Chain of Peroxisome proliferator-activated receptor gamma/Nuclear receptor corepressor 2 (P37231 whole entry): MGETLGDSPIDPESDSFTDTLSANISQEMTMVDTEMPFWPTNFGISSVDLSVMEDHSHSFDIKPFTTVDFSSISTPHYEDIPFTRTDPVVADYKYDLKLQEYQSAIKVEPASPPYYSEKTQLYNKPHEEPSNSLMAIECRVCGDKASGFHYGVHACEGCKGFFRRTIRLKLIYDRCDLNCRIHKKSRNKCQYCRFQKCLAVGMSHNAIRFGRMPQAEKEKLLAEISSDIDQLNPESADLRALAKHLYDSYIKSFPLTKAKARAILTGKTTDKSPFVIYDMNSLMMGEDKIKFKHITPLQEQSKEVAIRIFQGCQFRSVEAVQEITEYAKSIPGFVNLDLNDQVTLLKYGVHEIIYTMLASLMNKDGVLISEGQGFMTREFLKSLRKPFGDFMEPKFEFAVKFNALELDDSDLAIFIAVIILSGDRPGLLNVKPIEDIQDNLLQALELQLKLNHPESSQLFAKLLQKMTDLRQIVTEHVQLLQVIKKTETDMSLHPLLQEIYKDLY
Chain of Peroxisome proliferator-activated receptor gamma/Nuclear receptor corepressor 2 (Q9Y618 whole entry): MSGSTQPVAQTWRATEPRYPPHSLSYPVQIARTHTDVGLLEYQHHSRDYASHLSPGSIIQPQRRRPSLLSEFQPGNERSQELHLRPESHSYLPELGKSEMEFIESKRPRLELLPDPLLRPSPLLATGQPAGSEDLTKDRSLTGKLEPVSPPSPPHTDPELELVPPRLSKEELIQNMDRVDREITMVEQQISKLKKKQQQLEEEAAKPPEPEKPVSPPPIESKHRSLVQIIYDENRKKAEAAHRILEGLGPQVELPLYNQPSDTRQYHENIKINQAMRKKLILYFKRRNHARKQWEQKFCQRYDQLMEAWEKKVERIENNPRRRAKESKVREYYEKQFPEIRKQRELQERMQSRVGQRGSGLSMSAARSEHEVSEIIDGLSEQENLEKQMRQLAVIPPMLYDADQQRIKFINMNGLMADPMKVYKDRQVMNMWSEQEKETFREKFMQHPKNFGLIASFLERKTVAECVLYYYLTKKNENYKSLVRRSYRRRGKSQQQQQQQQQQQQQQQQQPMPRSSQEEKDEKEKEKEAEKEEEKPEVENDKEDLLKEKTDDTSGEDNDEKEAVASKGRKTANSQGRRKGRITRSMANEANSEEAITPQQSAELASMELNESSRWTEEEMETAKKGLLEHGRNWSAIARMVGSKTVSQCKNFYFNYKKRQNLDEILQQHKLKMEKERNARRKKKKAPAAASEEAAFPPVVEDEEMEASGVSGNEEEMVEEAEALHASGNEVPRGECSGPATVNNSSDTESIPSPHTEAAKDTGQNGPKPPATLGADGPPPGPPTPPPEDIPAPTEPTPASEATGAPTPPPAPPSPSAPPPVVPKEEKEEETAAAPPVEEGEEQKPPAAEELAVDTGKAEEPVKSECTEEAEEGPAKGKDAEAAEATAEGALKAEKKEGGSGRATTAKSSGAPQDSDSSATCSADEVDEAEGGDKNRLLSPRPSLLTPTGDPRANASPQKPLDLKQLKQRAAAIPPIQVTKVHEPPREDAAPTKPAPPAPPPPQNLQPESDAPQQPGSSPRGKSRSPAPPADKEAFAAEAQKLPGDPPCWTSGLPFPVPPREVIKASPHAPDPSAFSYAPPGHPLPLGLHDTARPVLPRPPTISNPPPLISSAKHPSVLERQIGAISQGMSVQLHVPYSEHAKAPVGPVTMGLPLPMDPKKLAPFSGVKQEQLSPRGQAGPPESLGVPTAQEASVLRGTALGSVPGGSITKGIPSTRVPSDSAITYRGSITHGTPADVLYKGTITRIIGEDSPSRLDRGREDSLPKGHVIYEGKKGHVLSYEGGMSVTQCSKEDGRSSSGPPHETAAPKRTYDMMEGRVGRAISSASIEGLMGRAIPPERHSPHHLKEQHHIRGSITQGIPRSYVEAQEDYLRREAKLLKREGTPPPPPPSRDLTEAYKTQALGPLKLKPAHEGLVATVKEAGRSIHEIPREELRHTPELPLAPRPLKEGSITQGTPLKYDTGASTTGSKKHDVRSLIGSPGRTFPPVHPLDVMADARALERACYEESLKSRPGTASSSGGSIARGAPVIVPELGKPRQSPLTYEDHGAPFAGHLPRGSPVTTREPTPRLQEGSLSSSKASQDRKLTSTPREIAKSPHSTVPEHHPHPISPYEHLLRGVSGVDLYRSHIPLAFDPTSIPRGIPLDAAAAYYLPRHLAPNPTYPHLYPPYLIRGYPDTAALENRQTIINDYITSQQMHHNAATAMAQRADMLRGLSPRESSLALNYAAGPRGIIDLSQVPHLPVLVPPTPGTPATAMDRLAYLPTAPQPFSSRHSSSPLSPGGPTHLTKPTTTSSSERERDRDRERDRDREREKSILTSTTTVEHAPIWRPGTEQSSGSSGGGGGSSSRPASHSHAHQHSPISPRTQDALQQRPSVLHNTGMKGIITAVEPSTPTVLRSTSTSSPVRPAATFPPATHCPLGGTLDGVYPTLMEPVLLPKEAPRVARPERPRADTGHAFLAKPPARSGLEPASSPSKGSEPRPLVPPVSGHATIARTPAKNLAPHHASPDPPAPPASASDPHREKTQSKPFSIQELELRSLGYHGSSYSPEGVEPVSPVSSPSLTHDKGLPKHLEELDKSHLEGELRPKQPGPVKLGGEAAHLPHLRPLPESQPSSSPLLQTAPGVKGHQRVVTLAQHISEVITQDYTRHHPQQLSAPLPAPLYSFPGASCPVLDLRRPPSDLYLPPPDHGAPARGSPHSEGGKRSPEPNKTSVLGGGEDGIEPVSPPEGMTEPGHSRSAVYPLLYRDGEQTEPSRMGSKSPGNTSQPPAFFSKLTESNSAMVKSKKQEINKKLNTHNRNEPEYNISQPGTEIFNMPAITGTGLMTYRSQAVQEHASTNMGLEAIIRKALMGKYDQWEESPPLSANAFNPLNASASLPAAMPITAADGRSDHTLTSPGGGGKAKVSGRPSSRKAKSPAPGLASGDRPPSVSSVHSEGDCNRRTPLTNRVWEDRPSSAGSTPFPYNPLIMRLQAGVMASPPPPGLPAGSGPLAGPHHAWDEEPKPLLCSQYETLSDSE
Chain of Photoreceptor-specific nuclear receptor (Q9Y5X4 whole entry): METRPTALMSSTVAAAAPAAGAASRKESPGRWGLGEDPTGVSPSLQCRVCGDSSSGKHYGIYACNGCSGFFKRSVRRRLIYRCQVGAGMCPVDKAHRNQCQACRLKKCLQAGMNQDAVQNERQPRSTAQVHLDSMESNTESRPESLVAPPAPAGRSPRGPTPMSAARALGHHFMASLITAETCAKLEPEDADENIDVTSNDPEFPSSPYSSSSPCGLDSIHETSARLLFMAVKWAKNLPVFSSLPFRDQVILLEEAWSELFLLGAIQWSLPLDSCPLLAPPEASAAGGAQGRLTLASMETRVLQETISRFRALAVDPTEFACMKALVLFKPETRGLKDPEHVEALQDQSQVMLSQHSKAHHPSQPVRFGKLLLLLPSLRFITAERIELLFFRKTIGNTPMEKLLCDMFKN
Chain of Ephrin type-A receptor 4 (Q03137 whole entry): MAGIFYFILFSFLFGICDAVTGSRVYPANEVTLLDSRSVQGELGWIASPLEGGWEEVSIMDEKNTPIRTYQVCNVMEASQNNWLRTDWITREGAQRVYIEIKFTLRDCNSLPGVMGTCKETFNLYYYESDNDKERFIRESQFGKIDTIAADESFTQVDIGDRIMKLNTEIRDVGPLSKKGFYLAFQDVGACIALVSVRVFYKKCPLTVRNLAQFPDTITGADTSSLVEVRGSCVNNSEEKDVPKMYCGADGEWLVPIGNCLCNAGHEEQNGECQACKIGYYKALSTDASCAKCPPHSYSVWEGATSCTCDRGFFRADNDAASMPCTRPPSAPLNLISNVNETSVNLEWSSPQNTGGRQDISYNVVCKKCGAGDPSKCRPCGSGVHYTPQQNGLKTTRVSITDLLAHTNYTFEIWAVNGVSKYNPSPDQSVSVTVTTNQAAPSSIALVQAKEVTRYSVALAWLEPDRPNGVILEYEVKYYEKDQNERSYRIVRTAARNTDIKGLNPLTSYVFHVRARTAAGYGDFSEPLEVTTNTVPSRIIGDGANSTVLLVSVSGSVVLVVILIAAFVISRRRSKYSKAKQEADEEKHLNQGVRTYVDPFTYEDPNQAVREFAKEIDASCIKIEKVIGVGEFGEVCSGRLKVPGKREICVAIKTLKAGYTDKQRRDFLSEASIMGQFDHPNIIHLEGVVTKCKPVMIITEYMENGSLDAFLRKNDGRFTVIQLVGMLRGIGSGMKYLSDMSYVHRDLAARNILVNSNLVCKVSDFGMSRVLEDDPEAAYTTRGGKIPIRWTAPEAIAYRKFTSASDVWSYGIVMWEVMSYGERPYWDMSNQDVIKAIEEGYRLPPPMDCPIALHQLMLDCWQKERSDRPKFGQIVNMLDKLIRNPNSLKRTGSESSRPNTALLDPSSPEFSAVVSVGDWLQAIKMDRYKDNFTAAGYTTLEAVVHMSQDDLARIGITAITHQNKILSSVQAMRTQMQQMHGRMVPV

Cc1c(C(=O)Nc2ccc(-n3cnnn3)cc2)oc2ccccc12
IC50 [1]: 7.48 µM (active) | IC50 [2]: 8.46 µM (active) | IC50 [3]: 78.5 µM (inactive)

CCOc1ccc(S(=O)(=O)N(CC(=O)N/N=C/c2ccc(-c3ccc([N+](=O)[O-])cc3)o2)c2ccccc2)cc1
IC50 [4]: > 49.8 µM (not active) | IC50 [5]: 36.4 µM (active) | IC50 [6]: 15.8 µM (not active) | IC50 [7]: 45.6 µM (active)

O=C(Oc1ccccc1[N+](=O)[O-])c1sc2ccccc2c1Cl
IC50 [8]: > 17 µM (not active)

O=C(Oc1ccc2ccc(O)cc2c1)C1CCCCC1
IC50 [9]: > 100 µM (active)

Cc1cc(-c2nnc3sc(-c4ccc(Cl)cc4Cl)nn23)n[nH]1
EC50 [10]: 15.4 µM (active)

CCCNC(=O)N1[C@H](C#N)[C@H](c2ccc(C#Cc3ccc(F)cc3)cc2)[C@H]1CO
AC50 [11]: 24.7 µM (active) | AC50 [12]: 7.89 µM (active) | AC50 [13]: 22.3 µM (active) | AC50 [14]: < 0.3 µM (active) | AC50 [15]: 0.016 µM (active) | AC50 [16]: 0.00982 µM (active) | AC50 [17]: 0.0156 µM (active)

Cc1ccc(-c2nnc(CSc3nc4cc5c(cc4cc3C)OCO5)o2)cc1
IC50 [18]: > 50 µM (not active) | IC50 [19]: 0.0359 µM (not active)
